Assay results taken from PubChem BioAssay (NCI).
Several values for one entry are separate records, joined by “and”; a condition that tells them apart may be missing. Identical values can stand only once.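 A five-concentration, 48-hour dose response in 96-well plates underlies each endpoint, interpolated linearly between surrounding concentrations. The concentration for 50% growth inhibition is given as GI50. TGI: total growth inhibition.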

Experiments:
Experiment in all cases: growth of human tumour cells (NCI), 48 h
HOP-92 NSCLC = test system: HOP-92 NSCLC
NCI-H23 lung = test system: NCI-H23 lung
RPMI-8226 leukemia = test system: RPMI-8226 leukemia
UACC-257 melanoma = test system: UACC-257 melanoma
NCI/ADR-RES ovarian = test system: NCI/ADR-RES ovarian
MCF7 breast = test system: MCF7 breast
SW-620 colon = test system: SW-620 colon
786-0 renal = test system: 786-0 renal
CAKI-1 renal = test system: CAKI-1 renal
EKVX NSCLC = test system: EKVX NSCLC

Row | SMILES | GI50 (HOP-92 NSCLC) [µM] | TGI (HOP-92 NSCLC) [µM] | GI50 (NCI-H23 lung) [µM] | TGI (NCI-H23 lung) | GI50 (RPMI-8226 leukemia) [µM] | TGI (RPMI-8226 leukemia) [µM] | GI50 (UACC-257 melanoma) [µM] | TGI (UACC-257 melanoma) [µM] | GI50 (NCI/ADR-RES ovarian) [µM] | TGI (NCI/ADR-RES ovarian) [µM] | GI50 (MCF7 breast) [µM] | TGI (MCF7 breast) [µM] | GI50 (SW-620 colon) [µM] | TGI (SW-620 colon) [µM] | GI50 (786-0 renal) [µM] | TGI (786-0 renal) | GI50 (CAKI-1 renal) [µM] | TGI (CAKI-1 renal) | TGI (EKVX NSCLC) [µM] | GI50 (EKVX NSCLC) [µM]
1 | COc1ccc(-c2nc(-c3nc4ccc(C)cc4[nH]3)cc3c2[nH]c2ccccc23)cc1 | 2.17 | 8.11 | 5.36 | > 100 µM | 1.85 | 5.31 | 3.94 | > 100 | 3.72 | > 100 | 3.06 | 56.3 | 6.23 | > 100 | 19.3 | > 100 µM | 3.28 | > 100 µM | – | –
2 | Cc1cc(-c2c(F)cc3c4nn([C@H]5CC[C@@H](N(C)C)CC5)c(=O)c-4cn(C4CC4)c3c2F)cc(C)n1 | 0.244 | – | 0.0207 | 0.079 µM and 0.554 µM | 0.0294 | – | – | 5.77 | – | – | – | > 100 | – | 1.36 | 0.0202 | 0.0526 µM and 0.363 µM | 0.185 | 0.346 µM and 1.11 µM | 5.96 | –
3 | O=C1CSC(c2ccccc2Cl)N1c1nnc(Cn2cnnc2)o1 (stereo not given) | 19.3 | 79.1 | 16.4 | > 100 µM | 5.77 | 95.5 | – | – | 6.64 | 83.4 | 1.63 | 13.2 | 4.73 | 27.5 | 13.8 | 33.4 µM | 11.4 | > 100 µM | > 100 | 22.3
4 | CCOC(=O)c1cc(-c2ccc(-c3cc(C(=O)OCC)c(C#N)c(N)c3C#N)cc2)c(C#N)c(N)c1C#N | – | – | – | > 100 µM | – | > 100 | – | > 100 | – | – | – | – | – | > 100 | – | > 100 µM | – | > 100 µM | > 100 | –
5 | COc1ccc(C2=Nc3ccccc3SC(C)C2)cc1OC (stereo not given) | – | > 100 | – | 38.5 µM | – | 38.4 | – | 49.6 | – | – | – | – | – | 18.6 | – | 30.2 µM | – | 50.4 µM | 56.5 | –
6 | Cc1c(C(=O)O)n(C)c(=O)n(C)c1=O | – | > 100 | – | > 100 µM | – | – | – | > 100 | – | – | – | – | – | > 100 | – | > 100 µM | – | > 100 µM | > 100 | –
7 | C/C(CN1C(=O)c2ccccc2C1=O)=N\NS(=O)(=O)c1cccc(C(=O)O)c1 | – | – | – | > 100 µM | – | > 100 | – | > 100 | – | – | – | – | – | > 100 | – | > 100 µM | – | > 100 µM | > 100 | –
8 | Cc1ccc(N=C[N-]c2ccc(C)cc2)cc1.Cc1ccc(N=C[N-]c2ccc(C)cc2)cc1.O=C([O-])C(F)(F)F.O=C([O-])C(F)(F)F.[OH3+].[OH3+].[Rh+2].[Rh+2] | – | – | 25.9 | 70.3 µM | 18.9 | 40.6 | 64.7 | > 100 | – | – | – | – | 31.9 | > 100 | 23.5 | 58.5 µM | > 100 | > 100 µM | > 100 | 50.2
9 | Cc1ccc(C)c(N2C(=O)C(=O)C(c3nc4ccccc4o3)C(=O)C2=O)c1 | – | > 100 | – | > 100 µM | – | – | – | > 100 | – | – | – | – | – | > 100 | – | > 100 µM | – | > 100 µM | > 100 | –
10 | COC1CC(O)C(OC(=O)c2ccccc2)C(C)O1 (stereo not given) | – | > 100 | – | > 100 µM | – | > 100 | – | – | – | – | – | – | – | > 100 | – | > 100 µM | – | > 100 µM | – | –
11 | CCC[CH2][Sn]([CH2]CCC)([S]C#N)[S]C#N | 1.79 | 3.5 | 0.609 | 2.14 µM | 0.229 | 1.34 | 0.965 | 2.4 | – | – | – | – | 0.378 | 1.54 | 1.2 | 2.49 µM | 0.32 | 1.87 µM | 2.99 | 1.36
12 | CC(=O)OC12C=C(C)C(C(C)C1)C1C(=O)N(CCN3CCCCC3)C(=O)C12 (stereo not given) | > 50 | > 50 | > 50 | > 50 µM | – | – | > 50 | > 50 | > 50 | > 50 | – | – | > 50 | > 50 | > 50 | > 50 µM | > 50 | > 50 µM | > 50 | > 50
13 | COc1ccc2oc3c(OC)c(OC)c(OC)cc3c(=O)c2c1 | – | – | – | > 100 µM | – | > 100 | – | > 100 | – | – | – | – | – | > 100 | – | > 100 µM | – | > 100 µM | > 100 | –
14 | COc1ccccc1NC(=O)C1=C(C)NC(C)=C(C(=O)Nc2ccccc2OC)C1/C=C/c1ccccc1 | – | > 100 | – | > 100 µM | – | > 100 | – | > 100 | – | – | – | – | – | > 100 | – | > 100 µM | – | > 100 µM | > 100 | –
15 | CCOC(=O)/C(=C/c1cccc(Cl)c1)N(CC)CC | – | 84.2 | – | > 100 µM | – | > 100 | – | > 100 | – | – | – | – | – | > 100 | – | > 100 µM | – | > 100 µM | > 100 | –
16 | CSc1nc2nc3c(nc2c(=O)n1C)C(=O)c1ccccc1C3=O | 0.476 | 2.59 | 0.142 | 0.422 µM | 0.255 | 1.02 | 0.131 | 0.265 | 0.253 | 0.938 | 0.162 | 0.384 | 0.252 | 0.738 | 0.402 | 1.46 µM | 0.3 | 1 µM | – | –
17 | CC(C)c1cccc(C(C)C)c1N1C(=O)C(=O)C(c2nc3ccccc3o2)C(=O)C1=O | – | > 100 | – | > 100 µM | – | > 100 | – | > 100 | – | – | – | – | – | > 100 | – | 84.3 µM | – | > 100 µM | > 100 | –
18 | CCCCC#Cc1c(I)n(C)c(=O)[nH]c1=O | – | – | 2.14 | 4.43 µM | 2.37 | 8.41 | 2.46 | 5.5 | 6.48 | 19.5 | 9.6 | 25.4 | 1.66 | 3.05 | 16.5 | 30.1 µM | – | 0.0843 µM | 29.1 | 15.7
19 | C#C[C@@]1(O)[C@@H](CO)O[C@@H](n2cc(I)c3c(N)ncnc32)[C@@H]1O | 0.0736 | 2.22 | 0.327 | 6.48 µM | 0.343 | 5.51 | 2.33 | 27.8 | 0.0731 | 7.9 | < 0.0117 | > 100 | 0.0581 | > 100 | 0.334 | 3.24 µM | – | – | 5.37 | 0.408
